Reference: article PMC11174489, “In Vitro Activation of Human Adrenergic Receptors and Trace Amine-Associated Receptor 1 by Phenethylamine Analogues Present in Food Supplements” (Nutrients, 2024)

Experiments:
Format in all cases: cell-based
[1] = molecular target: T1, human adrenergic receptor (ADR) α1B (Homo sapiens, UniProt P35368); assay: ADRα1B activation, Ca2+ influx (Fluo-8) in overexpressing chem-1 cells; details: for ADRα1B Emax: % of maximal signal obtained by adrenaline, average (95% CI); for Emax: Chem-1, read-out: ADRα1B Emax
T1 construct: host or cells: rat chem-1 cells
T1 sequence (P35368 1-520): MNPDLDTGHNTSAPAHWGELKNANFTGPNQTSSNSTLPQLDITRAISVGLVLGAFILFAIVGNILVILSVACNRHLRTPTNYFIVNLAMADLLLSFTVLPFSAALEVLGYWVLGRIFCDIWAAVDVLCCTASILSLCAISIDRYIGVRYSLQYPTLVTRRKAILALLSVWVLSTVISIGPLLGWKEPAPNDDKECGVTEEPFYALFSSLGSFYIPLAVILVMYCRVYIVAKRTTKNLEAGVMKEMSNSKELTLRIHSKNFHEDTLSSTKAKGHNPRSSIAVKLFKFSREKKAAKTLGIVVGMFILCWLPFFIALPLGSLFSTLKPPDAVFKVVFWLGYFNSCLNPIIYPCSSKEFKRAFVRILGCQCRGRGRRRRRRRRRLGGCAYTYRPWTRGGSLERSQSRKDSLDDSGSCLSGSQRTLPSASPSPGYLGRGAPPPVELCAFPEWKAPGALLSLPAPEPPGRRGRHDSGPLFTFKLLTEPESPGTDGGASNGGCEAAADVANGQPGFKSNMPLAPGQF
Source text: Cells overexpressing human ADRs α1A, α1B, α1D, α2A, α2B, β1 and β2 (Eurofins Discovery Services, St. Charles, MO, USA, product numbers: HTS087RTA, HTS158RTA, HTS216RTA, HTS096RTA, HTS157LRTA, HTS104RTA and HTS073RTA, respectively) were used to study the potency (EC50) and efficacy (Emax) of the selected compounds for these receptors by quantifying Ca^2+ influx upon receptor activation. ADRα1A, α1B, α1D, α2A, β1 and β2 were overexpressed in rat chem-1 cells. ADRα2B was overexpressed in HEK293 cells. The cells were seeded (10,000–50,000 cells/well) in a black 96-well plate (VWR International, Leuven, Belgium) and incubated at 37 °C and 5% CO2 for 24 h. After 24 h, the cells were washed with Hank’s balanced salt solution (HBSS) (Gibco, Paisley, UK) containing 0.35 g/L sodium bicarbonate and incubated with 5 µg/mL Fluo-8 AM in HBSS (pH 7.4) supplemented with 2.5 mM probenecid for 1 h. […] Peak tops of the obtained fluorescence response–time curves were corrected for baseline fluorescence and used to construct concentration–response relationships.
Concentration–response relationships for TAAR1 activation are presented as percentages of the maximal intracellular cAMP level induced by full the TAAR1 agonist phenethylamine and corrected for baseline cAMP accumulation. […] Experiments were run in duplicate in 7–9 independent experiments for ADR and were run in 3–5 independent experiments for TAAR1.

[2] = molecular target: T2, human adrenergic receptor (ADR) α2A (Homo sapiens, UniProt P08913); assay: ADRα2A activation, Ca2+ influx (Fluo-8) in overexpressing chem-1 cells; details: for EC50: Ca2+ response, chem-1 cells, average (95% confidence interval), 7–9 experiments; for potency at ADRα2A, times lower compared to adrenaline: relative to the endogenous agonist adrenaline
T2 construct: host or cells: rat chem-1 cells
T2 sequence (P08913 1-465): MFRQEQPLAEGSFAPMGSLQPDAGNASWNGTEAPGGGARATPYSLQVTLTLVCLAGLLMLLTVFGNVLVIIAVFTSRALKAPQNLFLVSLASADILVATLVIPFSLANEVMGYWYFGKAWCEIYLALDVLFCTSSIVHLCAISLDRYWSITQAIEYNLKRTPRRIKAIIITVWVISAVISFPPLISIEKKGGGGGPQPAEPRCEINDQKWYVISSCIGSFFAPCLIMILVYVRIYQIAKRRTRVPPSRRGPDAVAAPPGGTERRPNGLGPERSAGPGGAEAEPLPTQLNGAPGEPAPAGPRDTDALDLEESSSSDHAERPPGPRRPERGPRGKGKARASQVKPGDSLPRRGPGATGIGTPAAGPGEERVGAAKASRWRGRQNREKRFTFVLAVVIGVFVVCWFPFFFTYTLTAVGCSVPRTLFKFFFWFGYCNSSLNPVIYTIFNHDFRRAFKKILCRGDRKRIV

[3] = molecular target: T3, human adrenergic receptor (ADR) β2 (Homo sapiens, UniProt P07550); assay: ADRβ2 activation, Ca2+ influx (Fluo-8) in overexpressing chem-1 cells; details: for ADRβ2 Emax: % of maximal signal obtained by adrenaline, average (95% CI); for EC50: Ca2+ response, chem-1 cells, average (95% confidence interval), 7–9 experiments
T3 construct: host or cells: rat chem-1 cells

[4] = molecular target: T4, human trace amine-associated receptor 1 (TAAR1) (Homo sapiens, UniProt Q96RJ0); assay: TAAR1 activation, intracellular cAMP (ELISA) in HEK293T cells stably expressing human TAAR1; details: for EC50: cAMP, HEK293T-hTAAR1 cells, 1 h exposure, average (95% confidence interval), 3–5 experiments; for Emax at 300 µM / Emax: HEK-293T; for Emax at 300 µM: read-out: TAAR1 effect at 300 µM, at 300 µM, % of the maximal effect obtained by phenethylamine, compounds that showed only an effect at 300 µM
T4 construct: expressed in transfected cells
T4 sequence (Q96RJ0 1-339): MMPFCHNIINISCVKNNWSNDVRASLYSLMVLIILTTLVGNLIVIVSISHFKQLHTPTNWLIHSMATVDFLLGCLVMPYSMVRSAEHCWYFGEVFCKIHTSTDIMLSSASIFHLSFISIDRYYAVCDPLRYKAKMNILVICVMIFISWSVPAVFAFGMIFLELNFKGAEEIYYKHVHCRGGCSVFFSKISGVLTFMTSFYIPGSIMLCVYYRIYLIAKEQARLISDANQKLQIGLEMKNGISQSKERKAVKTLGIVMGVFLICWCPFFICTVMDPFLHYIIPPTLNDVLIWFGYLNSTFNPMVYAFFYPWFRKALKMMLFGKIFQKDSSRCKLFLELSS
Method: The cells were seeded (90,000–250,000 cells/well) in a 48-well plate two days before the assay. Two hours before the assay, the cells were incubated with the culture medium containing 10% charcoal-stripped foetal bovine serum (Gibco, Grand Island, NY, USA). The assay was performed in Earle’s balanced salt solution (EBSS) (Gibco, Paisley, UK), containing 15 mM HEPES (Gibco, Paisley, UK), 1 mM IBMX and 0.02% ascorbic acid. First, the cells were pre-incubated for 20 min in the supplemented buffer. Subsequently, the cells were exposed to the test compounds for 1 h in an incubator at 37 °C with 5% CO2. After 1 h, the buffer was discarded and the cells were lysed with 3% trichloroacetic acid and incubated at room temperature on a plate shaker for 2 h. Cell lysates were further diluted and cAMP was measured using a cAMP ELISA kit (Cayman Chemical, Ann Arbor, MI, USA), according to the manufacturer’s protocol.
Concentration–response relationships are shown as mean ± SD.

[5] = % of maximal cAMP level obtained by phenethylamine, average (95% CI)

T3 sequence (P07550 whole entry): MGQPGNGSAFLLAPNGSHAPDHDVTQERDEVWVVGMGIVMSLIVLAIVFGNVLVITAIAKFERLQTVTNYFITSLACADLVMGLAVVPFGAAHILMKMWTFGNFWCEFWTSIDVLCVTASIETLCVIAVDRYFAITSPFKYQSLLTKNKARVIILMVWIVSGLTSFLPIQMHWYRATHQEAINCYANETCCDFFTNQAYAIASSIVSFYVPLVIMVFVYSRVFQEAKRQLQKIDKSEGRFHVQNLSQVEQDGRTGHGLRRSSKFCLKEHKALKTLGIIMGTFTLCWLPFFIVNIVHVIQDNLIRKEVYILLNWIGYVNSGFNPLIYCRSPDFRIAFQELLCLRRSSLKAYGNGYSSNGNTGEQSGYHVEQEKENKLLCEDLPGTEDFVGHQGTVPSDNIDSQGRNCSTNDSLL

SMILES | EC50 [1] | ADRα1B Emax [1] | EC50 [2] | ADRβ2 Emax [3] | EC50 [3] | EC50 [4] | Emax at 300 µM [4] | Emax [1] | Emax [4, 5] | Emax ([3]; Chem-1) | potency at ADRβ2, times less potent than adrenaline ([3]; relative to the full agonist adrenaline) | ADRα2A Emax ([2]; % of maximal signal obtained by adrenaline, average (95% CI)) | potency at ADRα2A, times lower compared to adrenaline [2] | TAAR1 Emax [4, 5] | activation of TAAR1 ([4]; concentrations up to 300 µM) | Emax ([2]; Chem-1, % of maximal signal obtained by adrenaline, average (95% CI))
CC(C)CC(C)N (stereo not drawn) | > 300 µM | - | > 300 µM | - | > 300 µM | > 300 µM |  |  |  |  |  |  |  |  |  | 
CC(C)CCCC(C)N (stereo not drawn) | > 300 µM | - | > 300 µM | - | > 300 µM | > 300 µM | 36% |  |  |  |  |  |  |  |  | 
CCC(C)CC(C)N (stereo not drawn) [1,3-Dimethylamylamine, 1,3-dimethylamylamine] | > 300 µM | - | > 300 µM | - | > 300 µM | > 300 µM | 52% |  |  |  |  |  |  |  |  | 
CN(C)CCO [Dimethylaminoethanol, dimethylaminoethanol] | > 300 µM | - | > 300 µM | - | > 300 µM | > 300 µM | ~5% |  |  |  |  |  |  |  |  | 
CN(C)CCc1ccccc1 [Dimethylphenethylamine, N,N-dimethylphenethylamine] | 6.1 µM |  | > 300 µM | - | > 300 µM | 21 µM |  | 19% | 64% |  |  |  |  |  |  | 
CNCC(O)c1ccccc1 (stereo not drawn) [Halostachine, halostachine] | 1.1 µM |  | > 300 µM | - | > 300 µM | 74 µM |  | 77% | 104% |  |  |  |  |  |  | 
Oc1ccc(CC2NCCc3cc(O)c(O)cc32)cc1 (stereo not drawn) [Higenamine, higenamine] | > 300 µM | - | > 300 µM |  | 0.47 µM | 0.98 µM |  |  | 93% | 31% | seven |  |  |  |  | 
CN(C)CCc1ccc(O)cc1 [Hordenine, hordenine] | 5.7 µM |  | 690 µM | - | > 300 µM | 47 µM |  | 37% | 82% |  |  | 12% | > 12000 times |  |  | 
CC(C)NCC(O)c1ccc(O)cc1 (stereo not drawn) [Isopropyloctopamine, isopropyloctopamine] | > 300 µM | - | > 300 µM | - | > 300 µM | 1.8 µM |  |  | 40% |  |  |  |  |  |  | 
CNC(C)C(O)c1ccc(O)cc1 (stereo not drawn) [Methylsynephrine] | > 300 µM | - | > 300 µM | - | > 300 µM | > 300 µM |  |  |  |  |  |  |  | - | did not activate | 
NCCc1ccccc1 [Phenethylamine, phenethylamine] | > 300 µM | - | > 300 µM | - | > 300 µM | 8.8 µM |  |  | 97% |  |  |  |  |  |  | 
NCCc1ccc(O)cc1 [Tyramine, tyramine] | > 300 µM | - | > 300 µM | - |  | 9.5 µM |  |  | 77% |  |  |  |  |  |  | 
NCC(O)c1ccc(O)cc1 (stereo not drawn) [p-Octopamine, p-octopamine] | 3.9 µM |  | > 300 µM | - | > 300 µM | 46 µM |  | 94% | 85% |  |  |  |  |  |  | 
CNCC(O)c1ccc(O)cc1 (stereo not drawn) [p-Synephrine, p-synephrine] |  |  | 100 µM | - | > 300 µM | 92 µM |  | 91% | 85% |  |  |  | > 12000 times |  |  | 89%
CC(CN)c1ccccc1 (stereo not drawn) [β-Methylphenethyl-amine, beta-methylphenethylamine] | > 300 µM | - | > 300 µM | - | > 300 µM | 2.1 µM |  |  | 77% |  |  |  |  |  |  | 
